Read-outs that look alike come from different tables or passages of the source.
Key:
HepG2 cells [1] = assay: Resazurin reduction viability assay, 2D HepG2; format: cell-based, human; settings: for Statistical significance, Viability Galactose settings Resazurin: HepG2
Method: The HepG2 cell line, a human hepatocellular carcinoma, was obtained from ATCC (American Type Culture Collection, Wesel, Germany). […] Cells were maintained at 37 °C in a 5% CO2 humidified atmosphere, fed every 2 to 3 days and passaged at approximately 80% confluence. […] For galactose experiments, the medium was refreshed 24 h before exposure with galactose-containing medium. […] Culture medium was refreshed every 3–4 days and the culture was maintained for 21 days prior to dosing.
(§1) The conversion of resazurin to fluorescent resorufin was measured in a plate reader at excitation/emission 540/590 nm.
(§2) All results are average of 2–3 independent experiments.

[2] = target: NADH dehydrogenase (Complex I, CI) (Homo sapiens, UniProt O75251+O75306+P03886)
Method: The mitochondrial complex assay uses real-time OCR measurement with sequential addition of specific complex substrates and/or inhibitors to identify the complex within the ETC that is inhibited. […] In the first step, cultured cells are permeabilised and provided with CI substrates. The test compound is injected and OCR is measured. […] OCR is measured for the second time. In the third step, Antimycin A together with ascorbate and tetramethyl phenylenediamine (TMPD) is added to simultaneously block CIII and supply CIV. A third and final OCR measurement is conducted.
The following day, cells were washed once in mitochondrial assay solution (MAS), containing 220 mM mannitol (Sigma, M9647), 70 mM sucrose (Sigma, S7903), 10 mM potassium phosphate (Sigma, P5655), 5 mM magnesium chloride (Sigma, M8266), 3 mM HEPES (Sigma, H0887) and 1 mM EGTA (Sigma, E4378) with 0.2% fatty acid-free BSA (Sigma, A8806). […] Each measurement consisted of a thirty second mix and two-minute read cycle. Compounds were injected sequentially and OCR was measured twice. […] Complex inhibition was determined using the second OCR measurement after compound/vehicle injection, normalised to the baseline OCR measurements prior to compound addition. ETC inhibition is determined in decreased OCR. CI inhibition is confirmed if the inhibited OCR by injection A can be rescued after injection B. CII inhibition is determined if there is no inhibition after A, but inhibition after B. CIII inhibition is determined if there is inhibition after A and B, with recovery after C. OCR inhibition after injection C indicates effects downstream of CIII.
All results are average of 2–3 independent experiments. Each independent experiment is referred to as biological replicate and includes at least two technical replicates. […] Variation in all performed assays was calculated and represented as standard deviation (SD). Curves were fit using the non-liner regression four-parameter Hill model.

RPTEC/TERT1 cells [3] = assay: Resazurin reduction viability assay, RPTEC/TERT1; format: cell-based, human
Method: These cells were obtained under licence from Evercyte GmBH, Vienna Austria. […] For experiments, cells were plated in a required format plate, allowed to become contact-inhibited and fed 24 h prior to treatment exposure. For experiments in galactose condition, cells were fed 24 h prior to experiment with culture medium (custom made DMEM/F12, PromoCell) in which 5 mM glucose was replaced with 5 mM galactose (Merck, G5388).
as §1, §2

HepG2 cells [4] = assay: Seahorse mitostress assay in intact cells (OCR/ECAR), HepG2; settings: seen at 2 and 10 µM
[5] = system: CII/CIII (succinate dehydrogenase / cytochrome bc1 complex); format: cell-based, human; settings: permeabilised HepG2; sequential substrates/inhibitors
Method: The test compound is injected and OCR is measured. […] OCR is measured for the second time. […] A third and final OCR measurement is conducted.
Compounds were injected sequentially and OCR was measured twice. […] ETC inhibition is determined in decreased OCR.
as §2

RPTEC/TERT1 cells [6] = assay: Seahorse mitostress assay in intact cells (OCR/ECAR), RPTEC/TERT1; format: cell-based, human
Method: The Seahorse bioanalyzer simultaneously measures cellular oxygen consumption rates (OCR) and extracellular acidification rates (ECAR). The mitostress assay utilises a sequential addition of modulators of the oxidative phosphorylation to assess key parameters of mitochondrial function. […] It is worth noting here that RPTEC/TERT1 require longer differentiation time in the Seahorse plates, potentially due to sub-optimum gas exchange in the Seahorse culture plates. HepG2 cells were cultured at the density of 15,000 cells/well on collagen-coated (2.5 µg/µL collagen IV, Merck, C7521) Seahorse cell culture microplates two days prior to analysis.
The mitostress test was performed as described (Eakins et al. [2016]; Tilmant et al. [2018]). Immediately before the assay, cell culture medium was replaced with 180 µL of Seahorse XF Base Medium without phenol red (Agilent, 1003335-100), supplemented with 10 mM D-glucose (Merck, G7021), 5 mM HEPES (Merck, H4034), 2 mM sodium pyruvate (Merck, P5281) and 1 mM L-glutamine (Merck, G8540). Cells were allowed to equilibrate for 45 min in a non-CO2 37 °C incubator. […] OCR was measured five times after test compound injection and three times for all injections. Each measurement consisted of a 3 min mix and subsequent 3 min read cycle. […]

HepG2 cells [7] = assay: Cell death (PI staining) in 2D HepG2 by live confocal imaging; format: cell-based, human
Method: After 1 h incubation at 37° C, the medium was removed and 25 μL complete DMEM containing 0.2 μM Rho123 and 100 nM propidium iodide (PI) (Merck, P4170) was added, followed by 25 μL of medium containing 2×, the desired concentration of test compound. […] The confocal imaging was performed using a Nikon TiE2000 with perfect focus system and xy-stage (Nikon, Amsterdam, The Netherlands). Quantification of the Hoechst, Rho123 and PI signal intensity and localization were performed using CellProfiler version 2.1.1 (Broad Institute, Cambridge, USA). […] The PI-positive nuclei were identified by masking the previous segmented nuclei and the PI signal. More than 10% overlap was considered as PI positive. All CellProfiler analyses were stored as HDF5 files. The combination of an internally developed R script, run in Rstudio (Boston, USA), was used for data extraction including Rho123 signal intensity, fraction PI positive and nuclear count.
as §2

HepG2 cells [8] = assay: Mitochondrial membrane potential (Rho123) live confocal imaging; format: cell-based, human; settings: HepG2, Rho123, 24 h
Method: Rhodamine 123 (Rho123) (Merck, R8004) was used in a live confocal imaging setting for the assessment of effects at MMP. Rho123 localises to mitochondria and the decline in fluorescence is proportional to a decrease in MMP (Johnson et al. [1980], [1981]). HepG2 were seeded at 10,000 cells/30 μL/well in a 384-wells μCLEAR® black plate (Greiner Bio-One, 781 091). Two days post-seeding, 30 μL complete HepG2 culture medium, containing 200 ng/μL Hoechst 33342 (Life technologies, H1399) and 1 μM Rho123, was added to the medium. After 1 h incubation at 37° C, the medium was removed and 25 μL complete DMEM containing 0.2 μM Rho123 and 100 nM propidium iodide (PI) (Merck, P4170) was added, followed by 25 μL of medium containing 2×, the desired concentration of test compound. The intensity of Hoechst, Rho123 and PI, was monitored using live confocal imaging for 24 h using the 408, 488 and 561 nm laser, respectively. The confocal imaging was performed using a Nikon TiE2000 with perfect focus system and xy-stage (Nikon, Amsterdam, The Netherlands). Quantification of the Hoechst, Rho123 and PI signal intensity and localization were performed using CellProfiler version 2.1.1 (Broad Institute, Cambridge, USA). The nuclear identification based on the Hoechst signal was performed using an internally created segmentation module (Di et al. [2012]), followed by a cytoplasmic identification based on a specific distance from these nuclei. The PI-positive nuclei were identified by masking the previous segmented nuclei and the PI signal. More than 10% overlap was considered as PI positive. All CellProfiler analyses were stored as HDF5 files. The combination of an internally developed R script, run in Rstudio (Boston, USA), was used for data extraction including Rho123 signal intensity, fraction PI positive and nuclear count.
(§3) All results are average of 2–3 independent experiments. […] Leist, University of Konstanz (Krebs et al. [2020]).

RPTEC/TERT1 cells [9] = assay: Mitochondrial membrane potential (MMP) assay with JC-1; format: cell-based, human; settings: RPTEC/TERT1, JC-1, 24 h
Method: JC-1 is a single-excitation dual-emission fluorescence-based assay that allows for ratiometric semiquantitative assessment of mitochondrial membrane potential (Perry et al. [2011]). For quantification of changes in MMP cells were pre-loaded, for approximately 1.5 h, with the JC-1 pre-loading solution containing 9 µM JC-1 (Invitrogen, 65-0851-38), 9 µL/mL Pluronic F-127 10% in water (Invitrogen, P6866) and 5 µM Cyclosporine A (CsA) (Merck, 30024), a P-glycoprotein (P-gp) inhibitor, to prevent dye extrusion due to the expression of efflux pumps in RPTEC/TERT1 cell line. After this incubation time, cells were washed and exposed to test compounds dissolved in a JC-1 treatment solution containing 0.5 µM JC-1, 1.5 µL/mL Pluronic F-127 and 1 µM CsA for the desired time. We have previously determined that CsA at up to 5 µM has no adverse effect on RPTEC/TERT1 cells for up to 14 days (Wilmes et al. [2013]). Fluorescence was measured in a plate reader at excitation 492 nm and dual emission, 535 nm for monomers and 590 nm for dimers. Results are presented as the dimer/monomer ratio and expressed as percentage of untreated samples.
as §3

[10] = up to 10 µM, 24 h exposure, glucose
[11] = RPTEC/TERT1, glucose, h = 10 µM

Chain of NADH dehydrogenase (Complex I, CI) (O75251 39-213): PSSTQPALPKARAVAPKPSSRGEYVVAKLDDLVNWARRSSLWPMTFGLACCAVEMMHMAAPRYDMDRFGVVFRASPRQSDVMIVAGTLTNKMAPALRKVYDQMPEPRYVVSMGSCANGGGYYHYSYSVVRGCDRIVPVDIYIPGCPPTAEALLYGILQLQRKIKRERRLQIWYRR
Chain of NADH dehydrogenase (Complex I, CI) (P03886 whole entry): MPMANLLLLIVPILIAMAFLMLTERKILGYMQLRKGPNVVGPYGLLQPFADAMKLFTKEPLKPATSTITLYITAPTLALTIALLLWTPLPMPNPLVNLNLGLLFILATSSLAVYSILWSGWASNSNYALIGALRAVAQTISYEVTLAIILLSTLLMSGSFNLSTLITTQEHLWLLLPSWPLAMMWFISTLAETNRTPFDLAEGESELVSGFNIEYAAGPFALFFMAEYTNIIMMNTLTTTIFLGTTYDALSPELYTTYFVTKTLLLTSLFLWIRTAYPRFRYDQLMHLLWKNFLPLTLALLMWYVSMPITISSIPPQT
Chain of NADH dehydrogenase (Complex I, CI) (O75306 34-463): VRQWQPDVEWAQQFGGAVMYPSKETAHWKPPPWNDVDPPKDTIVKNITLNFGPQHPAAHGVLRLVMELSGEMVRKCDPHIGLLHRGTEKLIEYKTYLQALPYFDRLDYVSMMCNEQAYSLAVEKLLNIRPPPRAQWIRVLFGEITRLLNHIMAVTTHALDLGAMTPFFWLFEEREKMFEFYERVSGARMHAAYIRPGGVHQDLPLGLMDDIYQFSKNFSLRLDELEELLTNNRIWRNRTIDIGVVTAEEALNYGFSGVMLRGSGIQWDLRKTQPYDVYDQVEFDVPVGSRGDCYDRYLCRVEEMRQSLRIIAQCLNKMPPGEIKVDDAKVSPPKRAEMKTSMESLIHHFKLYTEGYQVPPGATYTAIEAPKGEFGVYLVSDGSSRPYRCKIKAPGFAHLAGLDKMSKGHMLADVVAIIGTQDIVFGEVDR

COc1cc(CNC(=O)CCCC/C=C/C(C)C)ccc1O [Capsaicin]
Effect on resazurin reduction / viability (HepG2 cells [1]; [10]): did not affect resazurin reduction | LOEL, CI inhibition in mitochondrial complex assay ([2]; permeabilised HepG2): 50 µM | ETC-complex specificity pattern (CI) ([2]; permeabilised HepG2, OCR inhibition after injection, recovery with succinate): expected CI-specificity pattern | Statistical significance, Viability Glucose settings Resazurin (RPTEC/TERT1 cells [3]; [11]): * (*p < 0.05 (Tables 3, 4)) | Effect on resazurin reduction (RPTEC/TERT1 cells [3]; [10]): did not affect resazurin reduction

Cc1ccc(-c2c(Cl)nc(C#N)n2S(=O)(=O)N(C)C)cc1 [Cyazofamid]
Statistical significance, Viability Galactose settings Resazurin (HepG2 cells [1]; h = 10 µM): * (*p < 0.05 (Tables 3, 4)) | Uncoupling effect in mitostress OCR (HepG2 cells [4]): strong uncoupling effect | ETC-complex specificity pattern (CII/CIII) [5]: CII inhibition pattern but only at 100 µM | Uncoupling effect in mitostress OCR (RPTEC/TERT1 cells [6]; RPTEC/TERT1, seen at 2 and 10 µM): strong uncoupling effect

COc1cc2c(cc1OC)[C@@H]1C(=O)c3ccc4c(c3O[C@@H]1CO2)C=CC(C)(C)O4 [Deguelin]
Statistical significance, Viability Galactose settings Resazurin (HepG2 cells [1]; f = 0.4 µM): * (*p < 0.05 (Tables 3, 4)) | Statistical significance, Viability Galactose settings Resazurin (HepG2 cells [1]; g = 7 µM): * (*p < 0.05 (Tables 3, 4)) | Statistical significance, Viability Galactose settings Resazurin (HepG2 cells [1]; h = 10 µM): * (*p < 0.05 (Tables 3, 4)) | OCR basal - Permeabilised cells Measurement 1 statistical significance [2]: * (*p < 0.05) | Statistical significance, Viability Galactose settings Resazurin (RPTEC/TERT1 cells [3]; RPTEC/TERT1, f = 0.4 µM): * (*p < 0.05 (Tables 3, 4)) | Statistical significance, Viability Galactose settings Resazurin (RPTEC/TERT1 cells [3]; RPTEC/TERT1, g = 7 µM): * (*p < 0.05 (Tables 3, 4)) | Statistical significance, Viability Galactose settings Resazurin (RPTEC/TERT1 cells [3]; RPTEC/TERT1, h = 10 µM): * (*p < 0.05 (Tables 3, 4)) | Statistical significance, Viability Glucose settings Resazurin (RPTEC/TERT1 cells [3]; RPTEC/TERT1, glucose, g = 7 µM): * (*p < 0.05 (Tables 3, 4)) | Statistical significance, Viability Glucose settings Resazurin (RPTEC/TERT1 cells [3]; [11]): * (*p < 0.05 (Tables 3, 4))

Cc1nn(C)c(Oc2ccccc2)c1C=NOCc1ccc(C(=O)OC(C)(C)C)cc1 [Fenpyroximate]
Statistical significance, Viability Galactose settings Resazurin (HepG2 cells [1]; d = 0.016 µM): * (*p < 0.05 (Tables 3, 4)) | Statistical significance, Viability Galactose settings Resazurin (HepG2 cells [1]; e = 0.08 µM): * (*p < 0.05 (Tables 3, 4)) | Statistical significance, Viability Galactose settings Resazurin (HepG2 cells [1]; g = 7 µM): * (*p < 0.05 (Tables 3, 4)) | Statistical significance, Viability Galactose settings Resazurin (HepG2 cells [1]; h = 10 µM): * (*p < 0.05 (Tables 3, 4)) | Statistical significance, Viability Glucose settings Resazurin (RPTEC/TERT1 cells [3]): * (*p < 0.05 (Tables 3, 4)) | Statistical significance, Viability Galactose settings Resazurin (RPTEC/TERT1 cells [3]; RPTEC/TERT1, e = 0.08 µM): * (*p < 0.05 (Tables 3, 4)) | Statistical significance, Viability Galactose settings Resazurin (RPTEC/TERT1 cells [3]; RPTEC/TERT1, g = 7 µM): * (*p < 0.05 (Tables 3, 4)) | Statistical significance, Viability Galactose settings Resazurin (RPTEC/TERT1 cells [3]; RPTEC/TERT1, h = 10 µM): * (*p < 0.05 (Tables 3, 4)) | Statistical significance, Viability Glucose settings Resazurin (RPTEC/TERT1 cells [3]; RPTEC/TERT1, glucose, g = 7 µM): * (*p < 0.05 (Tables 3, 4)) | Statistical significance, Viability Glucose settings Resazurin (RPTEC/TERT1 cells [3]; [11]): * (*p < 0.05 (Tables 3, 4)) | Statistical significance, Cell death (% 24h) Galactose (HepG2 cells [7]): * (*p < 0.05 (Tables 3, 4))

CC(C)Oc1cccc(NC(=O)c2ccccc2C(F)(F)F)c1 [Flutolanil]
Effect on MMP (HepG2 cells [8]): decreased MMP, but only at the highest concentrations | Effect on MMP (RPTEC/TERT1 cells [9]): actually increased it

Cc1ccccc1C(=O)Nc1cccc(OC(C)C)c1 [Mepronil]
Effect on MMP (HepG2 cells [8]): decreased MMP, but only at the highest concentrations | Effect on MMP (RPTEC/TERT1 cells [9]): actually increased it

Cc1nc(C(F)(F)F)c(C(=O)Nc2c(Br)cc(OC(F)(F)F)cc2Br)s1 [Thifluzamide]
Statistical significance, Viability Galactose settings Resazurin (HepG2 cells [1]; h = 10 µM): * (*p < 0.05 (Tables 3, 4)) | Effect on maximal respiration (RPTEC/TERT1 cells [6]; RPTEC/TERT1, higher concentrations): tendency to increase maximal respiration | Effect on MMP (HepG2 cells [8]): decreased MMP, but only at the highest concentrations

Source: paper PMC7395062, “Multiparametric assessment of mitochondrial respiratory inhibition in HepG2 and RPTEC/TERT1 cells using a panel of mitochondrial targeting agrochemicals” (Archives of Toxicology, 2020)
